Tested on: muscarinic M3 receptors over M1 receptors
Experiment: Selectivity for muscarinic M3 receptors over M1 receptors
Conditions: metabolite compared with darifenacin; "It appears"

Compound: NC(=O)C(c1ccccc1)(c1ccccc1)[C@@H]1CCN(CCc2ccc3c(c2)C(O)CO3)C1 (stereo partly shown) [metabolite]
- less selective for muscarinic M3 receptors over M1 receptors in comparison with darifenacin: 6 fold

Source: US6106864A, “Pharmaceutical formulations containing darifenacin” (Pfizer Inc., priority 1995, dated 2000)
